# ChEMBL document CHEMBL5154733, “Targeting NLRP3 signaling by a novel-designed sulfonylurea compound for inhibition of microglial inflammation” (Bioorg Med Chem, 2022)
# Active and inactive are the calls of the source. The calls are words filed in the database; no cut-off is given here.
# Columns and labels:
# [1] = Stabilization of microglia morphology in mouse N9 cells assessed as resting morphology level at 2.8 uM incubated for 24 hrs dosed 24 hrs after LPS stimulation by (reference value: 18%); format: functional
# [2] = test system: Brain; assay: Suppression of microglia activation in C57BL/6 mouse brain assessed as maintenance of microglia morphology by measuring Iba1 positive cells in cerebral cortex area at 55 mg/kg, ip by immunofluorescence staining; format: functional, organism-based
# [3] = test system: N9; assay: Inhibition of LPS-induced of nitric oxide production in mouse N9 cells at 2.8 uM incubated for 24 hrs dosed 24 hrs after LPS stimulation by DAF-FM dye based fluorescence assay; format: functional
# [4] = test system: N9; assay: Inhibition of LPS-induced of NLRP3 expression in mouse N9 cells at 0.7 to 2.8 uM incubated for 24 hrs dosed 24 hrs after LPS stimulation by Quantitative PCR assay; format: functional; conditions: dose 0.7-2.8 µM, DDE = dose-dependent effect
# [5] = test system: N9; assay: Inhibition of LPS-induced of phagocytosis in mouse N9 cells assessed as decrease in intracellular FAM-Abeta42 fluorescent intensity at 2.8 uM incubated for 24 hrs dosed 24 hrs after LPS stimulation by FAM-labeled fluorescent Abeta-42 peptide based fluorescence assay; format: functional
# [6] = Inhibition of LPS-induced of NLRP3 expression in mouse N9 cells assessed as NLRP3 expression level at 1.4 uM incubated for 24 hrs dosed 24 hrs after LPS stimulation by Quantitative PCR assay; format: functional; set-up: scale not given: the % may be the effect or the level left
# [7] = Inhibition of LPS-induced of IL-1beta expression in mouse N9 cells assessed as relative IL-1beta expression at 2.8 uM incubated for 24 hrs dosed 24 hrs after LPS stimulation by Quantitative PCR assay (reference value: 7 fold); format: functional
# [8] = Inhibition of LPS-induced of NLRP3 expression in mouse N9 cells assessed as NLRP3 expression level at 0.7 uM incubated for 24 hrs dosed 24 hrs after LPS stimulation by Quantitative PCR assay; format: functional; set-up: scale not given: the % may be the effect or the level left
# [9] = test system: N9; assay: Inhibition of LPS-induced of phagocytosis in mouse N9 cells assessed as decrease in FAM positive cell number at 2.8 uM incubated for 24 hrs dosed 24 hrs after LPS stimulation by FAM-labeled fluorescent Abeta-42 peptide based fluorescence assay; format: functional
# [10] = Inhibition of LPS-induced of IL-1beta expression in mouse N9 cells assessed as IL-1beta level at 2.8 uM incubated for 24 hrs dosed 24 hrs after LPS stimulation by ELISA (reference value: 100 pg/ml); format: functional
# [11] = test system: Brain; assay: Suppression of microglia activation in C57BL/6 mouse brain assessed as maintenance of microglia morphology by measuring Iba1 positive cell number in cerebral cortex positive cells in cerebral cortex area at 55 mg/kg, ip by immunofluorescence staining; format: functional, organism-based
# [12] = test system: N9; assay: Inhibition of LPS-induced of TNF-alpha expression in mouse N9 cells at 2.8 uM incubated for 24 hrs dosed 24 hrs after LPS stimulation by ELISA; format: functional
# [13] = test system: N9; assay: Inhibition of LPS-induced Caspase-1 expression in mouse N9 cells at 2.8 uM incubated for 24 hrs dosed 24 hrs after LPS stimulation by FLICA 660 Caspase-1 assay; format: functional
# [14] = Inhibition of LPS-induced of NLRP3 expression in mouse N9 cells assessed as NLRP3 expression level at 2.8 uM incubated for 24 hrs dosed 24 hrs after LPS stimulation by Quantitative PCR assay; format: functional; set-up: scale not given: the % may be the effect or the level left
# [15] = test system: N9; assay: Inhibition of LPS-induced of iNOS expression in mouse N9 cells at 2.8 uM incubated for 24 hrs dosed 24 hrs after LPS stimulation by Western blot; format: functional
# [16] = Toxicity in mouse N9 cells assessed as effect on cell viability at 0.35 to 5.6 uM incubated for 24 hrs by MTT assay; format: cell-based; conditions: n9, 24 h, dose 0.35-5.6 µM
# [17] = test system: N9; assay: Inhibition of LPS-induced of NLRP3 expression in mouse N9 cells at 2.8 uM incubated for 24 hrs dosed 24 hrs after LPS stimulation by Western blot; format: functional
smiles,measurement,setting,value
O=C1N(c2cncnc2)CCCN1S(=O)(=O)c1ccc(C(F)(F)F)cc1,Activity,[1],65%
same,Activity,[2],Active
same,inhibition,[3],Active
same,inhibition,[4],Dde
same,inhibition,[5],Active
same,Activity,[6],220%
same,fold change (FC),[7],2
same,Activity,[8],370%
same,inhibition,[9],Active
same,Activity,[10],70 pg/mL
same,Activity,[11],Active
same,inhibition,[12],Active
same,inhibition,[13],Active
same,Activity,[14],100%
same,inhibition,[15],Active
same,Activity,[16],Non-Toxic
same,inhibition,[17],Active
